Columns and labels:
[1] = tested on: immortalized murine microglia N9; experiment: Immunomodulation in LPS-treated N9 microglia, Western blot of iNOS and TREM2; settings: 2.5 and 5 μM; 100 ng/mL LPS, 24 h
Experimental: To gain a conclusive answer on the potential role of these kinase inhibitors in counteracting neuroinflammatory processes, after the verified induced astrocytic polarization, the ability of selected compounds to modulate inflammatory response was analyzed by favoring the immunomodulatory switch from neurotoxic M1 phenotype of microglia to phagocytic and neuroprotective M2 phenotype, evaluating inducible nitric oxide synthase (iNOS) and TREM2 as M1 and M2 markers (Figure ).
The microglial phenotype was evaluated through Western blot analysis of the pro-inflammatory iNOS and anti-inflammatory-TREM2 markers.

[2] = BBB permeability in hCMEC/D3 transwell model; settings: human
Experimental: (§1) To this aim, the immortalized human brain endothelial cell line (hCMEC/D3) was used since it mimics the brain endothelium-restricted permeability and expresses most of the transporters and receptors present in vivo, constituting a valuable in vitro model of the human BBB crossing system.
(§2) BBB permeability assay was conducted as described in Albertini et al. The brain microvascular endothelial cells (hCMEC/D3) were seeded at the density of 5 × 10^4 cells per cm^2 in the upper compartment of Transwell filters (polyester, pore size 0.4 μm, 12-well tissue culture transwell; Corning), precoated with rat tail collagen type I (0.1 mg/mL; Roche). They were grown for 7 days up to confluence in Endothelial Cell Growth Medium 2 (Promocell), supplemented with penicillin/streptomycin 100 U/mL, in a humidified, 5% CO2 incubator at 37 °C. Confluent monolayers were washed in prewarmed HBSS buffer, and the selected compounds were added to the apical (AP) side at a concentration of 100 μM. […] Samples (100 μL) were collected from the BL side at different time points (15, 30, 60, and 90 min) and then replaced with the corresponding volume of HBSS buffer. […] The concentration of compounds was determined using a Ultimate 3000 HPLC system (ThermoFisher) with UV–vis detection at the maximum absorption wavelength of each compound except for inulin as determined by a spectrophotometric method using a Tecan Sunrise absorbance microplate reader. […] The permeability coefficient (Papp) was calculated as follows: Papp = (ΔQ/Δt)/(C [donor] × A), where ΔQ/Δt represents the permeation rate (mol/s), C [donor] is the initial compound concentration in the donor compartment at time 0 (mol/cm^3), and A represents the surface area of the filter (1.12 cm^2).

FYNα = FYNα (Homo sapiens, UniProt P06241); experiment: FYNα kinase assay, LANCE Ultra TR-FRET; type: biochemical; settings: mean ± SD of at least three independent determinations; ATP near Km; read-out: Fyn IC50
Experimental: GSK-3β and FYNα kinase assays were run in 384-well microplates (OptiPlate-384, White, PerkinElmer) in a total reaction volume of 20 μL. The inhibitory potency against human recombinant GSK-3β and FYNα (Carna Biosciences) was evaluated using the LANCE Ultra (PerkinElmer) time-resolved fluorescence resonance energy transfer (TR-FRET) by measuring the phosphorylation of the ULight-labeled substrate, according to the manufacturer’s instructions. The synthetic peptide surrounding Ser641 of human muscle glycogen synthase (ULight-GS (Ser641/pSer657)) and the synthetic 28-amino acid peptide containing eight Tyr residues placed in different amino acid contexts (ULightTM-TK (PT66)) were selected as specific substrates for GSK-3β and FYNα, respectively. Briefly, test compounds and staurosporine (reference compound) or DMSO (control) are mixed with the enzyme (GSK-3β: 2 nM and FYNα: 1 nM) in a buffer containing 50 mM HEPES (pH 7.5), 1 mM EGTA, 10 mM MgCl2, 2 mM DTT, and 0.01% Tween-20. […] Following incubation, the reaction is stopped by adding 6 mM EDTA. After 5 min, the antiphospho antibody labeled with europium chelate is added. After 1 more hour, the kinase reaction is monitored by irradiation at 320 nm and the fluorescence measured at 615 and 665 nm, using EnVision 2014 Multilabel Reader (PerkinElmer). The calculated signal ratio at 665/615 nm is proportional to the extent of ULight-substrate phosphorylation. The compounds were tested at 11 different concentrations ranging from 3 nM up to 100 μM in triplicate. […] The results were expressed as a percent inhibition of the control enzyme activity.
Dose–response curves were run in at least three independent experiments, performed in three technical replicates. IC50 values (concentrations causing half-maximal enzyme inhibition) were determined by nonlinear regression analysis of the Log[concentration]/response curves generated with mean replicate values using a four parameter Hill equation curve fitting with GraphPad Prism 8 (GraphPad Software Inc., CA-USA).

[3] = tested on: neurospheres (NPCs from the subventricular zone); experiment: Neurosphere differentiation, immunofluorescence of DCX, GFAP, OLIG2; type: cell-based, mice; settings: 1 μM; 7 days
From the text: Lastly, we move forward to evaluate the neuromodulatory profile of selected compounds that involves the capability to polarize the spontaneous differentiation of neurospheres, which potentially can maturate in neurons or macroglia, such as astrocytes and oligodendrocytes. Modulating NPC differentiation is especially relevant under neurodegenerative conditions as it could offer an intriguing opportunity to achieve polyhedric therapeutic effects. Importantly, neuronal differentiation may help to counteract the progressive neuronal loss, while promoting oligodendrocyte phenotype could support remyelination and neuronal function and the astrocytic polarization may aid to foster a neuroprotective profile. Particularly, after 7 days of treatment at 1 μM, in the same experimental conditions previously reported, cells were fixed and stained with different antibody markers such as doublecortin (DCX) for the immature neurons, glial fibrillary acidic protein (GFAP) for astrocytes, and oligodendrocyte transcription factor 2 (OLIG2) for oligodendrocyte precursors for immunofluorescence analysis (Figure a). […] By driving the maturation of astrocytes, compounds 41 and 43 could exert neuroprotection through multiple mechanisms, including the secretion of neurotrophic factors, enhancement of antioxidant defenses, regulation of water balance, ion homeostasis, and glutamate buffering and recycling. Furthermore, astrocytes support the integrity of the blood–brain barrier (BBB) and aid in the refinement of neural networks via synaptic pruning, further reinforcing their role in preserving brain function and structure.
NSCs were initially obtained by SVZ microdissection of 6 months-old C57BL/6N wild-type male mice (Mus musculus) and routinely cultured in suspension in DMEM-F12 (Gibco; ThermoFisher Scientific, Waltham, MA, USA) supplemented with 2 mM glutamine, 10 μg/mL insulin from bovine pancreas (Sigma-Aldrich; St Louis, MO, USA), 20 ng/mL epidermal growth factor (EGF; PeproTech EC, London, UK), 20 ng/mL fibroblast growth factor-2 (FGF2; PeproTech), 1% N2 (ThermoFisher Scientific), 1% B27 (ThermoFisher Scientific), 10 units/mL penicillin, and 10 μg streptomycin.
To assess the effect of compounds of interest in NSCs differentiation, 30 spheres were plated on 13 mm glass coverslips, previously coated with Matrigel matrix (Corning; New York, USA), in complete DMEM F-12 medium, and treated with 1 μM of compounds of interest. After 7DIV, neurospheres were fixed for 20 min with 4% PFA in PBS 0.1% pH 7.4. Fixed neurospheres were permeabilized in 0.1% Triton/PBS and nonspecific sites were blocked for 1 h with 0.1% Triton/PBS and 5% normal goat serum (Sigma-Aldrich; St Louis, MO, USA). Cells were then incubated overnight at 4 °C with the following primary antibodies: Anti-Doublecortin DCX (Abcam, Cambridge, UK), GFAP (Dakopatts), OLIG2 (Santa Cruz Biotechnology), 1:500 dilution in 0.1% Triton/PBS with 2% normal goat serum. After 3 washes in 0.1% Triton/PBS, specific secondary antibodies were added for 2 h at RT in the dark: Donkey anti-Mouse IgG Alexafluor 555 (Abcam, Cambridge, UK), Goat anti-Rabbit IgG Alexafluor 555 (Abcam, Cambridge, UK), 1:1000 dilution in 0.1% Triton/PBS with 2% normal goat serum. Following 3 washes in 0.1% Triton/PBS, nuclei were stained with DAPI (2 μg/mL, Sigma-Aldrich) for 5 min. Glass coverslips were mounted by using Ultracruz Aqueous Mounting Medium with DAPI (Santa Cruz Biotechnology). Neurospheres confocal images were obtained with a Nikon EZ-C1 microscope (60× objective) and the z-stack function (1024 steps and 1 μm thickness layers; 40 total stacks). 3D image reconstruction was performed by using Fiji ImageJ2 software, z-project plugin, and selecting the sum stacks’ function. Fluorescence intensity index was estimated as the ratio of markers’ positive cells intensity/total cells fluorescence intensity stained with DAPI per ROI.

[4] = tested on: primary rat cerebellar granule neurons (CGNs); experiment: Neurotoxicity, cell viability in CGNs (MTT); type: cell-based; settings: 5, 10, and 25 μM, 24 h
Experimental: A preliminary cell viability assessment was conducted in primary rat cerebellar granule neurons (CGNs), which are considered a reliable model for studying cellular and molecular mechanisms of survival/apoptosis and neurodegeneration/neuroprotection.
Primary cerebellar granule cells were dissociated from cerebella and plated on 96-well plates, previously coated with 10 μg/mL poly-L-lysine, at a density of 1.2 × 10^5 cells/0.2 mL medium/well in BME supplemented with 10% heat-inactivated FBS (Life Technologies), 2 mmol/L glutamine, 100 μmol/L gentamicin sulfate, and 25 mM KCl (all from Sigma-Aldrich). Sixteen hours later, 10 μM cytosine arabinofuranoside (Sigma-Aldrich) was added to avoid glial proliferation. After 7 days in vitro, differentiated neurons were shifted to serum-free BME medium and exposed to increasing concentrations (5 μM, 10 μM, 25 μM) of compounds of interest for 24 h. Then, cell viability was evaluated through the MTT assay.

[5] = tested on: primary rat cerebellar granule neurons (CGNs); experiment: Neuroprotection in CGNs, serum/potassium deprivation (MTT); type: cell-based; settings: 5, 10, and 25 μM, 48 h
From the text: First, we evaluated the neuroprotective properties of the selected compounds in the same cell line, once the expression of Fyn and GSK-3β in this cellular model was verified (Figure S2), after a serum/potassium deprivation experiment, which simulates physiological aging (and mortality), triggering around 20% of cell death. In particular, 7 days differentiated CGNs were exposed to serum-free BME medium with low extracellular concentration of K^+ ions and treated at selected doses (i.e., 5, 10, and 25 μM) of compounds for 48 h. Neuronal viability was then determined with an MTT assay.
To evaluate the neuroprotective effect of our compounds, we tested increasing concentrations (5 μM, 10 μM, 25 μM) of compounds of interest in differentiated CGNs switched to serum-free BME medium with 5 mM KCl (serum-potassium deprivation) for 48 h to mimic in vitro the naturally occurring death of granule cells. Neuroprotection was evaluated through MTT assay.
For MTT assay, thiazolyl blue was added to the culture medium at a final concentration of 0.1 mg/mL. Following a 20 min incubation at 37 °C in the dark, the MTT precipitate was dissolved in 0.1 M Tris–HCl pH 7.5 buffer containing 5% Triton X-100 (all from Sigma-Aldrich) and absorbance was read at 570 nm in a microplate spectrophotometric reader (Bio-Rad).

[6] = tested on: neurospheres (NPCs from the subventricular zone); experiment: Neurosphere growth analysis (NPC proliferation); type: cell-based, mice; settings: 0.1, 1, and 5 μM; 7 days
Experimental: Based on that, we further investigated the neurogenic and differentiation potential of our kinase inhibitors in cell culture of neurospheres, which are floating pools of NPCs coming from the subventricular zone (SVZ) of six-month-old mice. Particularly, we first analyzed the variation, during 7 days, in number and size of neurosphere population with and without treatment.
To investigate the effect of compounds of interest in neurospheres’ growth rate, single spheres were plated in suspension in 96-well plates (5 × 10^3 cells/well) in the presence of compounds (0.1 μM, 1 μM, and 5 μM) in complete DMEM F-12 culture medium. One image/well was acquired every day by using the Sartorius Incucyte Live-Cell Analysis System and evaluated through the Brightfield Spheroid Analysis Software Module. Only aggregates with areas larger than 400 μm^2 were considered for statistical analysis.

[7] = tested on: immortalized human brain endothelial cell line (hCMEC/D3); experiment: BBB permeability in hCMEC/D3 transwell model; settings: 100 μM apical; ± SE
Experimental: as §1, §2

Sequence of FYNα (P06241 whole entry): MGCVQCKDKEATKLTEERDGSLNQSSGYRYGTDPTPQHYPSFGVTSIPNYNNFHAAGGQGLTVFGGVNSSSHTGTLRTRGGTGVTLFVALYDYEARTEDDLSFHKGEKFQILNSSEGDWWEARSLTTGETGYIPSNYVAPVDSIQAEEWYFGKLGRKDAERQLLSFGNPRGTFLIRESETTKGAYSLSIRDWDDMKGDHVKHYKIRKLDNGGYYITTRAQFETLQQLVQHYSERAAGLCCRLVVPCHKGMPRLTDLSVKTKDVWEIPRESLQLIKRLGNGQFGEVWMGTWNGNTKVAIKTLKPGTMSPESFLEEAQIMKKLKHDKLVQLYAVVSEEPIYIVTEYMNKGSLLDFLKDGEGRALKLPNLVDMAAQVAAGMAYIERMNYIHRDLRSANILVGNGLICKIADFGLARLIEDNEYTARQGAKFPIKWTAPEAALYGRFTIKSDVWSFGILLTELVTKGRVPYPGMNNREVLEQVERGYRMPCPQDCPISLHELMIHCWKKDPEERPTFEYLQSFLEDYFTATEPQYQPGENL

Compound	TREM2 expression (M2 marker) vs LPS [1]	iNOS expression (M1 marker) vs LPS [1]	Papp A→B at 90 min, 100 μM [2] [×10⁻⁶ cm/s]	IC50 (FYNα) [nM]	Differentiation toward oligodendrocytes (OLIG2) [3]	Increase in registered cell viability in comparison to control [4]	Neurotoxicity on CGNs (cell viability compared to control) [4]	Neuroprotection on CGNs (cell viability after serum/potassium deprivation) [5]	Neurosphere dimension (brightfield object total area), maturation [6]	Neurosphere number (object count per image), neurogenesis [6]	Permeability coefficient Papp [7]
Br.Clc1cc(CNc2nc(-c3c[nH]c4ncccc34)cs2)ccn1 [Compound 28, N-((2-Chloropyridin-4-yl)methyl)-4-(1H-pyrrolo[2,3-b]pyridin-3-yl)thiazol-2-amine Hydrobromide]	no significant variations	notably decreased the M1 marker at both tested concentrations	12.4 ± 1.13	710 ± 90	this effect was mitigated	amplified	not neurotoxic	mitigate the physiological senescence and mortality rate	noticeable maturation at days 6 and 7	pronounced neurogenesis	–
inulin [reference compound]	–	–	–	–	–	–	–	–	–	–	6.74± 1.7 10-6 cm/s

— publication PMC12406253, “Exploration of the Neuromodulatory Properties of Fyn and GSK-3β Kinases Exploiting 7‑Azaindole-Based Inhibitors” (Journal of Medicinal Chemistry, 2025)
